Laboratory results taken from patent publication US7652029B2, “Therapeutic compound and treatments” (priority 2004, dated 2010).

Columns and labels:
[1] = system: K-562; experiment: NCI multiple cell line test (SRB); assay type: cell-based, human; conditions: K-562 (Leukemia), 48 h
[2] = system: MOLT-4; experiment: NCI multiple cell line test (SRB); assay type: cell-based, human; conditions: MOLT-4 (Leukemia), 48 h
[3] = system: RPMI-8226; experiment: NCI multiple cell line test (SRB); assay type: cell-based, human; conditions: RPMI-8226 (Leukemia), 48 h
[4] = system: A549/ATCC; experiment: NCI multiple cell line test (SRB); assay type: cell-based, human; conditions: A549/ATCC (Non-Small Cell Lung Cancer), 48 h
[5] = system: EKVX; experiment: NCI multiple cell line test (SRB); assay type: cell-based, human; conditions: EKVX (Non-Small Cell Lung Cancer), 48 h
[6] = system: NCI-H226; experiment: NCI multiple cell line test (SRB); assay type: cell-based, human; conditions: NCI-H226 (Non-Small Cell Lung Cancer), 48 h
[7] = system: NCI-H522; experiment: NCI multiple cell line test (SRB); assay type: cell-based, human; conditions: NCI-H522 (Non-Small Cell Lung Cancer), 48 h
[8] = system: HCT-116; experiment: NCI multiple cell line test (SRB); assay type: cell-based, human; conditions: HCT-116 (Colon Cancer), 48 h
[9] = system: HCT-15; experiment: NCI multiple cell line test (SRB); assay type: cell-based, human; conditions: HCT-15 (Colon Cancer), 48 h
[10] = system: HT29; experiment: NCI multiple cell line test (SRB); assay type: cell-based, human; conditions: HT29 (Colon Cancer), 48 h
[11] = system: SW-620; experiment: NCI multiple cell line test (SRB); assay type: cell-based, human; conditions: SW-620 (Colon Cancer), 48 h
[12] = system: SF-268; experiment: NCI multiple cell line test (SRB); assay type: cell-based, human
[13] = system: SF-295; experiment: NCI multiple cell line test (SRB); assay type: cell-based, human; conditions: SF-295 (CNS Cancer), 48 h
[14] = system: LOX IMVI; experiment: NCI multiple cell line test (SRB); assay type: cell-based, human; conditions: LOX IMVI (Melanoma), 48 h
[15] = system: UACC-257; experiment: NCI multiple cell line test (SRB); assay type: cell-based, human; conditions: UACC-257 (Melanoma), 48 h
[16] = system: OVCAR-3; experiment: NCI multiple cell line test (SRB); assay type: cell-based, human; conditions: OVCAR-3 (Ovarian Cancer), 48 h
[17] = system: 786-0; experiment: NCI multiple cell line test (SRB); assay type: cell-based, human; conditions: 786-0 (Renal Cancer), 48 h
[18] = system: SN12C; experiment: NCI multiple cell line test (SRB); assay type: cell-based, human; conditions: SN12C (Renal Cancer), 48 h
[19] = system: HS 578T; experiment: NCI multiple cell line test (SRB); assay type: cell-based, human; conditions: HS 578T (Breast Cancer), 48 h
[20] = system: MDA-MB-435; experiment: NCI multiple cell line test (SRB); assay type: cell-based, human; conditions: MDA-MB-435 (Breast Cancer), 48 h
[21] = system: BT-549; experiment: NCI multiple cell line test (SRB); assay type: cell-based, human; conditions: BT-549 (Breast Cancer), 48 h
[22] = system: normal human lung fibroblasts; experiment: Growth response, MTT dye conversion assay; assay type: cell-based; conditions: compared with cisplatin
[23] = system: HOP-92 cells; experiment: Growth response, MTT dye conversion assay; assay type: cell-based, human; conditions: low doses (FIG. 12 as printed)
[24] = system: H226 cells; experiment: Growth response, MTT dye conversion assay; assay type: cell-based, human
[25] = system: human endothelial vein cells (HUVECs); experiment: Growth response, MTT dye conversion assay; assay type: cell-based; conditions: FIG. 6; 48 hours; compared with cisplatin
[26] = system: MCF-7 cells; experiment: Growth response, MTT dye conversion assay; assay type: cell-based, human; conditions: FIG. 7; 48 hours; compared with cisplatin
[27] = Homo sapiens, read-out: −log10GI50 (converted)

Compound: COC(=O)C1=C(C(=O)OC)SC2(S1)C(C(=O)OC)=C(C(=O)OC)SC1=C2c2cccc(OC)c2N(C(=O)CN2C(=O)CCC2=O)C1(C)C [MT477]
- IC50 ([1]; Homo sapiens, K562, read-out: −log10GI50 (converted)): 1.62 µM
- −log10LC50 [1]: * (effect not reached at maximum dose of 0.05 millimolar)
- −log10TGI [1]: 4.99 molar
- IC50 [2, 27]: 1.02 µM
- −log10LC50 [2]: 4.68 molar
- −log10TGI [2]: 5.64 molar
- IC50 [3, 27]: 7.59 µM
- −log10LC50 [3]: 4.42 molar
- −log10TGI [3]: 4.77 molar
- −log10LC50 [4]: * (effect not reached at maximum dose of 0.05 millimolar)
- −log10TGI [4]: 4.77 molar
- IC50 [4, 27]: 3.8 µM
- −log10LC50 [5]: 4.34 molar
- −log10TGI [5]: 4.7 molar
- IC50 [5, 27]: 8.51 µM
- IC50 [6, 27]: 7.08 µM
- −log10LC50 [6]: * (effect not reached at maximum dose of 0.05 millimolar)
- −log10TGI [6]: 4.72 molar
- IC50 [7, 27]: 9.33 µM
- −log10LC50 [7]: * (effect not reached at maximum dose of 0.05 millimolar)
- −log10TGI [7]: 4.31 molar
- −log10LC50 [8]: 5.48 molar
- −log10TGI [8]: 5.75 molar
- IC50 [8, 27]: 0.955 µM
- −log10LC50 [9]: 4.69 molar
- −log10TGI [9]: 5.27 molar
- IC50 [9, 27]: 1.48 µM
- −log10LC50 [10]: * (effect not reached at maximum dose of 0.05 millimolar)
- −log10TGI [10]: 4.65 molar
- IC50 ([10]; Homo sapiens, HT-29, read-out: −log10GI50 (converted)): 1.7 µM
- IC50 [11, 27]: 1.66 µM
- −log10LC50 [11]: * (effect not reached at maximum dose of 0.05 millimolar)
- −log10TGI [11]: * (effect not reached at maximum dose of 0.05 millimolar)
- GI50 ([12]; Homo sapiens, SF-268, NCI-SF268, MT477 ACTUAL): 2.51 µM
- IC50 ([12]; Homo sapiens, SF-268 (CNS Cancer), 48 h, read-out: −log10GI50 (converted)): 2.14 µM
- Activity against CNS cancer NCI-SF268 ([12]; MT477 ACTUAL): Yes
- −log10LC50 ([12]; SF-268 (CNS Cancer), 48 h): * (effect not reached at maximum dose of 0.05 millimolar)
- −log10TGI ([12]; SF-268 (CNS Cancer), 48 h): 4.97 molar
- IC50 [13, 27]: 9.55 µM
- −log10LC50 [13]: * (effect not reached at maximum dose of 0.05 millimolar)
- −log10TGI [13]: 4.56 molar
- IC50 [14, 27]: 0.851 µM
- −log10LC50 [14]: 5.52 molar
- −log10TGI [14]: 5.79 molar
- IC50 [15, 27]: 1.48 µM
- −log10LC50 [15]: 4.55 molar
- −log10TGI [15]: 5.53 molar
- IC50 [16, 27]: 0.813 µM
- −log10LC50 [16]: 5.39 molar
- −log10TGI [16]: 5.74 molar
- −log10LC50 [17]: 5.47 molar
- −log10TGI [17]: 5.76 molar
- IC50 [17, 27]: 0.871 µM
- IC50 [18, 27]: 5.89 µM
- −log10LC50 [18]: 4.6 molar
- −log10TGI [18]: 4.91 molar
- −log10LC50 [19]: * (effect not reached at maximum dose of 0.05 millimolar)
- −log10TGI [19]: 4.68 molar
- IC50 [19, 27]: 6.61 µM
- IC50 [20, 27]: 1.7 µM
- −log10LC50 [20]: 4.58 molar
- −log10TGI [20]: 5.27 molar
- −log10LC50 [21]: * (effect not reached at maximum dose of 0.05 millimolar)
- −log10TGI [21]: 4.86 molar
- IC50 [21, 27]: 3.55 µM
- growth response ([22]; FIG. 10, normal human lung cells at 24 and 48 hours): more effective than cisplatin
- cytotoxicity profile (growth response) ([22]; FIGS. 1 and 2, 48 hours): cytotoxicity profile that is similar to cisplatin
- growth response at low concentrations [23]: effective even at very low doses, including micromolar dosages
- growth response ([24]; FIG. 5, 48 hours, compared with cisplatin): more effective than cisplatin
- growth response at low concentrations ([24]; H226 cells, low doses (FIG. 11 as printed)): effective even at very low doses, including micromolar dosages
- cytotoxicity profile (growth response) [25]: cytotoxicity profile that is similar to cisplatin
- growth response [26]: more effective than cisplatin
